# Reference: patent publication US9918956B2 (SICHUAN JIUZHANG BIOLOGICAL SCIENCE AND TECHNOLOGY CO., LTD, priority 2013, dated 2018)
# What was measured:
# [1] = adjuvant compatibility, high temperature (60° C.) test; format: physicochemical
# [2] = adjuvant compatibility, high humidity (92.5% relative humidity) test; format: physicochemical; details: 25° C.
# [3] = stability of crude drugs; format: physicochemical; details: light and heat
# [4] = hygroscopicity of chlorogenic acid crude drug; format: physicochemical
# [5] = pH of chlorogenic acid solutions
# [6] = adjuvant compatibility, bright light exposure test; format: physicochemical; details: light 4500 lx ± 500 lx
# Description: Samples were taken and examined on 0, 5th, 10th days, respectively, and results were depicted in Table 7.
# [7] = pH-degradation reaction rate of chlorogenic acid in buffer solutions
# [8] = from pH-degradation reaction rate curve
smiles,measurement,setting,value
O=C(/C=C/c1ccc(O)c(O)c1)O[C@@H]1C[C@](O)(C(=O)O)C[C@@H](O)[C@H]1O [chlorogenic acid],Content,[1]; day 0,99.51%
same,Description,[1]; day 0,Off-white
same,Loss on drying,[1]; day 0,2.31%
same,Related substances Others 2,[1]; day 0,0.154%
same,Related substances Others 3,[1]; day 0,0.211%
same,Related substances Others 4,[1]; day 0,0.035%
same,Related substances Others Total,[1]; day 0,0.504%
same,Content,[1]; day 5,99.36%
same,Description,[1]; day 5,Dark brown
same,Loss on drying,[1]; day 5,2.25%
same,Related substances Others 2,[1]; day 5,0.160%
same,Related substances Others 3,[1]; day 5,0.294%
same,Related substances Others 4,[1]; day 5,0.039%
same,Related substances Others Total,[1]; day 5,0.627%
same,Content,[1]; day 10,99.31%
same,Description,[1]; day 10,Dark brown
same,Loss on drying,[1]; day 10,2.13%
same,Related substances Others 1,[1]; day 10,0.143%
same,Related substances Others 2,[1]; day 10,0.175%
same,Related substances Others 3,[1]; day 10,0.306%
same,Related substances Others 4,[1]; day 10,0.047%
same,Related substances Others Total,[1]; day 10,0.670%
same,Content,[2]; day 0,99.51%
same,Description,[2]; day 0,Off white
same,Loss on drying,[2]; day 0,2.31%
same,Related substances Others 2,[2]; day 0,0.154%
same,Related substances Others 3,[2]; day 0,0.211%
same,Related substances Others 4,[2]; day 0,0.035%
same,Related substances Others Total,[2]; day 0,0.504%
same,Content,[2]; day 5,99.47%
same,Description,[2]; day 5,Pale yellow
same,Loss on drying,[2]; day 5,4.22%
same,Related substances Others 2,[2]; day 5,0.157%
same,Related substances Others 3,[2]; day 5,0.203%
same,Related substances Others 4,[2]; day 5,0.036%
same,Related substances Others Total,[2]; day 5,0.518%
same,Content,[2]; day 10,99.43%
same,Description,[2]; day 10,Pale yellow
same,Loss on drying,[2]; day 10,4.75%
same,Related substances Others 2,[2]; day 10,0.174%
same,Related substances Others 3,[2]; day 10,0.221%
same,Related substances Others 4,[2]; day 10,0.041%
same,Related substances Others Total,[2]; day 10,0.570%
same,stability of crude drug,[3],sensitive to light and heat
same,hygroscopicity,[4],had hygroscopicity
same,pH value of solution,[5]; […] solution before freeze-drying,about 3.0
same,pH value of solution,[5]; concentration 0.03%,about 3.5
same,Content,[6]; day 0,99.51%
same,Description,[6]; day 0,Off white
same,Loss on drying,[6]; day 0,2.31%
same,Related substances Others 2,[6]; day 0,0.154%
same,Related substances Others 3,[6]; day 0,0.211%
same,Related substances Others 4,[6]; day 0,0.035%
same,Related substances Others Total,[6]; day 0,0.504%
same,Content,[6]; day 5,99.15%
same,Description,[6]; day 5,Dark brown
same,Loss on drying,[6]; day 5,2.38%
same,Related substances Others 2,[6]; day 5,0.483%
same,Related substances Others 3,[6]; day 5,0.223%
same,Related substances Others 4,[6]; day 5,0.037%
same,Related substances Others Total,[6]; day 5,0.871%
same,Content,[6]; day 10,99.07%
same,Description,[6]; day 10,Dark brown
same,Loss on drying,[6]; day 10,2.54%
same,Related substances Others 2,[6]; day 10,0.498%
same,Related substances Others 4,[6]; day 10,0.044%
same,Concentration of chlorogenic acid,"[7]; buffer pH 1.5, 0 h",108.07 µg/mL
same,Concentration of chlorogenic acid,"[7]; buffer pH 1.5, 3 h",97.95 µg/mL
same,Concentration of chlorogenic acid,"[7]; buffer pH 1.5, 7 h",92.20 µg/mL
same,Concentration of chlorogenic acid,"[7]; buffer pH 1.5, 11 h",78.65 µg/mL
same,Concentration of chlorogenic acid,"[7]; buffer pH 1.5, 17 h",76.80 µg/mL
same,Concentration of chlorogenic acid,"[7]; buffer pH 1.5, 22 h",68.79 µg/mL
same,Concentration of chlorogenic acid,"[7]; buffer pH 2.0, 0 h",108.42 µg/mL
same,Concentration of chlorogenic acid,"[7]; buffer pH 2.0, 3 h",98.91 µg/mL
same,Concentration of chlorogenic acid,"[7]; buffer pH 2.0, 7 h",97.79 µg/mL
same,Concentration of chlorogenic acid,"[7]; buffer pH 2.0, 11 h",99.67 µg/mL
same,Concentration of chlorogenic acid,"[7]; buffer pH 2.0, 17 h",90.77 µg/mL
same,Concentration of chlorogenic acid,"[7]; buffer pH 2.0, 22 h",88.26 µg/mL
same,Concentration of chlorogenic acid,"[7]; buffer pH 3.0, 0 h",107.51 µg/mL
same,Concentration of chlorogenic acid,"[7]; buffer pH 3.0, 3 h",103.02 µg/mL
same,Concentration of chlorogenic acid,"[7]; buffer pH 3.0, 7 h",101.91 µg/mL
same,Concentration of chlorogenic acid,"[7]; buffer pH 3.0, 11 h",102.01 µg/mL
same,Concentration of chlorogenic acid,"[7]; buffer pH 3.0, 17 h",96.77 µg/mL
same,Concentration of chlorogenic acid,"[7]; buffer pH 3.0, 22 h",95.18 µg/mL
same,Concentration of chlorogenic acid,"[7]; buffer pH 4.0, 0 h",106.38 µg/mL
same,Concentration of chlorogenic acid,"[7]; buffer pH 4.0, 7 h",95.78 µg/mL
same,Concentration of chlorogenic acid,"[7]; buffer pH 4.0, 11 h",91.29 µg/mL
same,Concentration of chlorogenic acid,"[7]; buffer pH 4.0, 17 h",85.09 µg/mL
same,Concentration of chlorogenic acid,"[7]; buffer pH 4.0, 22 h",80.21 µg/mL
same,Concentration of chlorogenic acid,"[7]; buffer pH 5.1, 0 h",105.96 µg/mL
same,Concentration of chlorogenic acid,"[7]; buffer pH 5.1, 3 h",97.99 µg/mL
same,Concentration of chlorogenic acid,"[7]; buffer pH 5.1, 7 h",88.87 µg/mL
same,Concentration of chlorogenic acid,"[7]; buffer pH 5.1, 11 h",81.70 µg/mL
same,Concentration of chlorogenic acid,"[7]; buffer pH 5.1, 17 h",66.59 µg/mL
same,Concentration of chlorogenic acid,"[7]; buffer pH 5.1, 22 h",55.83 µg/mL
same,Concentration of chlorogenic acid,"[7]; buffer pH 6.2, 0 h",105.67 µg/mL
same,Concentration of chlorogenic acid,"[7]; buffer pH 6.2, 3 h",67.91 µg/mL
same,Concentration of chlorogenic acid,"[7]; buffer pH 6.2, 7 h",43.91 µg/mL
same,Concentration of chlorogenic acid,"[7]; buffer pH 6.2, 11 h",33.46 µg/mL
same,Concentration of chlorogenic acid,"[7]; buffer pH 6.2, 17 h",22.91 µg/mL
same,Concentration of chlorogenic acid,"[7]; buffer pH 6.2, 22 h",18.48 µg/mL
same,pH value of most stable solution,[7]; [8],3
same,pH values at which aqueous solutions were more stable,[7]; [8],2-4
same,lgk,[7]; pH 1.5,−1.7036
same,constants of reaction rate k,"[7]; pH 1.5, first order degradation",0.0198
same,lgk,[7]; pH 2.0,−2.0947
same,constants of reaction rate k,"[7]; pH 2.0, first order degradation",0.0080
same,lgk,[7]; pH 3.0,−2.2931
same,constants of reaction rate k,"[7]; pH 3.0, first order degradation",0.0051
same,lgk,[7]; pH 4.0,−1.9027
same,lgk,[7]; pH 5.1,−1.5412
same,constants of reaction rate k,"[7]; pH 5.1, first order degradation",0.0288
same,lgk,[7]; pH 6.2,−1.1144
same,constants of reaction rate k,"[7]; pH 6.2, first order degradation",0.0768
